Test results from ChEMBL document CHEMBL1201862, “PubChem BioAssay data set” (2004).
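Following 48 hours of exposure in 96-well plates, responses at five concentrations were used to interpolate endpoints linearly. Abbreviation: GI50, concentration required for 50% inhibition of growth.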 The source made the active and inactive calls. No stated cut-off is given here; in the data, active = GI50 up to about 1.1 µM and inactive = higher.

How the values were obtained:
Test in all cases: NCI-60 cell line screen, 48 h
CCRF-CEM = tested on: CCRF-CEM
SK-MEL-5 = tested on: SK-MEL-5
KM12 = tested on: KM12
SF-295 = tested on: SF-295
A549 = tested on: A549
EKVX = tested on: EKVX
NCI-H226 = tested on: NCI-H226
SW-620 = tested on: SW-620
HL-60 = tested on: HL-60
UACC-257 = tested on: UACC-257
SNB-75 = tested on: SNB-75
OVCAR-4 = tested on: OVCAR-4
SF-268 = tested on: SF-268
SK-OV-3 = tested on: SK-OV-3
HCC 2998 = tested on: HCC 2998
LOX IMVI = tested on: LOX IMVI

Structure (SMILES) | GI50 (CCRF-CEM) | GI50 (SK-MEL-5) | GI50 (KM12) | GI50 (SF-295) | GI50 (A549) | GI50 (EKVX) | GI50 (NCI-H226) | GI50 (SW-620) | GI50 (HL-60) | GI50 (UACC-257) | GI50 (SNB-75) | GI50 (OVCAR-4) | GI50 (SF-268) | GI50 (SK-OV-3) | GI50 (HCC 2998) | GI50 (LOX IMVI)
CC1=C(c2cc(C(=O)Nc3nccs3)nc(NC#N)n2)Sc2ccccc2N1 | 79.1 µM (inactive) | > 100 µM (inactive) | > 100 µM (inactive) | > 100 µM (inactive) | > 100 µM (inactive) | > 100 µM (inactive) | > 100 µM (inactive) | > 100 µM (inactive) | > 100 µM (inactive) | > 100 µM (inactive) | 87.3 µM (inactive) | > 100 µM (inactive) | > 100 µM (inactive) | – | – | –
COC(=O)CC(CC(=O)C(=O)OC)C(=O)OC (stereo not given) | > 100 µM (inactive) | > 100 µM (inactive) | > 100 µM (inactive) | > 100 µM (inactive) | > 100 µM (inactive) | > 100 µM (inactive) | > 100 µM (inactive) | > 100 µM (inactive) | > 100 µM (inactive) | > 100 µM (inactive) | > 100 µM (inactive) | – | – | > 100 µM (inactive) | > 100 µM (inactive) | > 100 µM (inactive)
Cc1ccc2nc(N)[nH]c(=O)c2c1Sc1ccncc1 | 5.05 µM (inactive) | 21.2 µM (inactive) | > 51.6 µM (inactive) | 8.07 µM (inactive) | 6.73 µM (inactive) | 49.8 µM (inactive) | – | > 100 µM (inactive) | 10.9 µM (inactive) | > 100 µM (inactive) | > 78.9 µM (inactive) | 78.2 µM (inactive) | 10.5 µM (inactive) | > 30.6 µM (inactive) | 1.36 µM (inactive) | 11.2 µM (inactive)
Nc1ccc2ncc(Nc3ccc(Cl)c(Cl)c3)nc2c1 | 19.7 µM (inactive) | 17.5 µM (inactive) | 25.9 µM (inactive) | 20 µM (inactive) | 26.3 µM (inactive) | 27.2 µM (inactive) | 20.8 µM (inactive) | 35.2 µM (inactive) | 14.5 µM (inactive) | 19.4 µM (inactive) | 16 µM (inactive) | 46 µM (inactive) | 39.7 µM (inactive) | 38.9 µM (inactive) | 17.6 µM (inactive) | 21.6 µM (inactive)
CN(C(=N)c1ccccc1)c1ccccc1 | > 100 µM (inactive) | > 100 µM (inactive) | > 100 µM (inactive) | > 100 µM (inactive) | > 100 µM (inactive) | > 100 µM (inactive) | > 100 µM (inactive) | > 100 µM (inactive) | > 100 µM (inactive) | – | 47.6 µM (inactive) | > 100 µM (inactive) | – | > 100 µM (inactive) | > 100 µM (inactive) | 84.7 µM (inactive)
COC(=O)C1=CC2OC13CC1CCC3(C2=O)C1(C)C (stereo not given) | 3.25 µM (inactive) | 15.8 µM (inactive) | 16.5 µM (inactive) | 19.6 µM (inactive) | 31.4 µM (inactive) | > 10 µM (inactive) | 17.1 µM (inactive) | 4.05 µM (inactive) | 6.9 µM (inactive) | 10.4 µM (inactive) | 7.01 µM (inactive) | 10.9 µM (inactive) | 10 µM (inactive) | 21 µM (inactive) | 14.5 µM (inactive) | –
O=C(NNC(=O)c1cc(/C=C/c2cccc([N+](=O)[O-])c2)nc(S)n1)Nc1ccc(Cl)cc1 | 20.6 µM (inactive) | 86.5 µM (inactive) | 98.9 µM (inactive) | > 100 µM (inactive) | 70 µM (inactive) | > 100 µM (inactive) | > 100 µM (inactive) | – | 0.883 µM (active) | 91 µM (inactive) | > 100 µM (inactive) | – | > 100 µM (inactive) | > 100 µM (inactive) | > 100 µM (inactive) | 20 µM (inactive)
O=C(CSc1nnc(-c2ccc(/N=C\c3ccc(Cl)cc3)cc2)o1)Nc1ccccc1Cl | > 100 µM (inactive) | > 100 µM (inactive) | > 100 µM (inactive) | > 100 µM (inactive) | > 100 µM (inactive) | > 100 µM (inactive) | > 100 µM (inactive) | > 100 µM (inactive) | > 100 µM (inactive) | 20.7 µM (inactive) | > 100 µM (inactive) | > 100 µM (inactive) | > 100 µM (inactive) | > 100 µM (inactive) | – | > 100 µM (inactive)
O=C(O)CCSC(=O)Nc1ccccc1Cl | > 100 µM (inactive) | > 100 µM (inactive) | 51.2 µM (inactive) | > 100 µM (inactive) | > 100 µM (inactive) | > 100 µM (inactive) | > 100 µM (inactive) | > 100 µM (inactive) | – | > 100 µM (inactive) | > 100 µM (inactive) | > 100 µM (inactive) | > 100 µM (inactive) | > 100 µM (inactive) | > 100 µM (inactive) | > 100 µM (inactive)
CC1(c2ccccc2)CC(c2ccccc2)=NO1 (stereo not given) | > 100 µM (inactive) | > 100 µM (inactive) | > 100 µM (inactive) | > 100 µM (inactive) | > 100 µM (inactive) | > 100 µM (inactive) | > 100 µM (inactive) | > 100 µM (inactive) | > 100 µM (inactive) | > 100 µM (inactive) | > 100 µM (inactive) | > 100 µM (inactive) | > 100 µM (inactive) | > 100 µM (inactive) | > 100 µM (inactive) | –
c1ccc(CCCC2Sc3cccc4cccc(c34)S2)cc1 | > 100 µM (inactive) | 78.3 µM (inactive) | > 100 µM (inactive) | > 100 µM (inactive) | > 100 µM (inactive) | > 100 µM (inactive) | 88.3 µM (inactive) | > 100 µM (inactive) | 64.6 µM (inactive) | – | > 100 µM (inactive) | > 100 µM (inactive) | > 100 µM (inactive) | > 100 µM (inactive) | 88.7 µM (inactive) | > 100 µM (inactive)
CCOC(=O)C(C(=O)OCC)=C1N[C@H](C(=O)OCC)CS1 | > 100 µM (inactive) | > 100 µM (inactive) | > 100 µM (inactive) | > 100 µM (inactive) | > 100 µM (inactive) | > 100 µM (inactive) | 80.5 µM (inactive) | > 100 µM (inactive) | > 100 µM (inactive) | > 100 µM (inactive) | – | > 100 µM (inactive) | > 100 µM (inactive) | – | > 100 µM (inactive) | > 100 µM (inactive)
O=NN1CCN=C1c1ccc([N+](=O)[O-])cc1 | – | > 100 µM (inactive) | > 100 µM (inactive) | > 100 µM (inactive) | > 100 µM (inactive) | – | > 100 µM (inactive) | > 100 µM (inactive) | > 100 µM (inactive) | > 100 µM (inactive) | > 100 µM (inactive) | > 100 µM (inactive) | > 100 µM (inactive) | > 100 µM (inactive) | > 100 µM (inactive) | > 100 µM (inactive)
Cn1c(=O)c2c3oc(=O)cc(O)c3c(=O)n3c4ccccc4n(c1=O)c23 | 29.2 µM (inactive) | 28 µM (inactive) | 35.6 µM (inactive) | > 100 µM (inactive) | 45.7 µM (inactive) | 57.3 µM (inactive) | – | 40.5 µM (inactive) | 21.1 µM (inactive) | 26.1 µM (inactive) | 32.2 µM (inactive) | 36.5 µM (inactive) | 47.6 µM (inactive) | > 100 µM (inactive) | 42.6 µM (inactive) | 15.8 µM (inactive)
CC(C)C(N)=O [ISOBUTYRAMIDE] | > 5000 µM (inactive) | > 5000 µM (inactive) | > 5000 µM (inactive) | > 5000 µM (inactive) | > 5000 µM (inactive) | – | > 5000 µM (inactive) | > 5000 µM (inactive) | > 5000 µM (inactive) | > 5000 µM (inactive) | > 5000 µM (inactive) | > 5000 µM (inactive) | > 5000 µM (inactive) | > 5000 µM (inactive) | – | > 5000 µM (inactive)
COc1cccc2c1OC1Sc3ccccc3-c3nn(-c4ccccc4)c-2c31 (stereo not given) | > 100 µM (inactive) | – | > 100 µM (inactive) | > 100 µM (inactive) | > 100 µM (inactive) | > 100 µM (inactive) | – | > 100 µM (inactive) | > 100 µM (inactive) | > 100 µM (inactive) | > 100 µM (inactive) | – | > 100 µM (inactive) | > 100 µM (inactive) | > 100 µM (inactive) | > 100 µM (inactive)
COC(=O)C1=CC2C(=O)OC1C1C(=O)NC(=O)C21 (stereo not given) | > 100 µM (inactive) | > 100 µM (inactive) | > 100 µM (inactive) | > 100 µM (inactive) | > 100 µM (inactive) | – | – | > 100 µM (inactive) | > 100 µM (inactive) | > 100 µM (inactive) | 74.6 µM (inactive) | 60.4 µM (inactive) | > 100 µM (inactive) | > 100 µM (inactive) | > 100 µM (inactive) | > 100 µM (inactive)
COc1cc2c(cc1OC)/C(=C\c1ccccc1N)C(=O)OC2 | 2.05 µM (inactive) | 17.8 µM (inactive) | 13.9 µM (inactive) | 15.1 µM (inactive) | 32.1 µM (inactive) | 25 µM (inactive) | – | 4 µM (inactive) | 3.3 µM (inactive) | 15.1 µM (inactive) | 10.3 µM (inactive) | 14.9 µM (inactive) | 20.9 µM (inactive) | 27.7 µM (inactive) | 23.3 µM (inactive) | 2.11 µM (inactive)
Cc1cccc(C)c1N1C(=O)C(=O)C(c2nc3ccccc3s2)/C(=N/NC(=O)NN)C1=O (stereo not given) | > 100 µM (inactive) | > 100 µM (inactive) | > 100 µM (inactive) | > 100 µM (inactive) | > 100 µM (inactive) | > 100 µM (inactive) | > 100 µM (inactive) | > 100 µM (inactive) | > 100 µM (inactive) | > 100 µM (inactive) | > 100 µM (inactive) | > 100 µM (inactive) | > 100 µM (inactive) | > 100 µM (inactive) | > 100 µM (inactive) | –
